We go through 16 compounds from ChEMBL document CHEMBL1154973 (Bioorg Med Chem Lett, 2010).

The term IC50 denotes the concentration needed to halve the response being measured. High values mean a need for much substance, low ones inhibition by little substance.

The target in assay [1] is T1, Acetylcholinesterase and butyrylcholinesterase (AChE and BChE) (Rattus norvegicus) (UniProt P37136+Q9JKC1). The assay can be described thus: Selectivity ratio of IC50 for rat plasma BChE to IC50 for rat brain AChE. The assay is classed as cell-free.
T1 sequence (Q9JKC1 1-597, one chain of several): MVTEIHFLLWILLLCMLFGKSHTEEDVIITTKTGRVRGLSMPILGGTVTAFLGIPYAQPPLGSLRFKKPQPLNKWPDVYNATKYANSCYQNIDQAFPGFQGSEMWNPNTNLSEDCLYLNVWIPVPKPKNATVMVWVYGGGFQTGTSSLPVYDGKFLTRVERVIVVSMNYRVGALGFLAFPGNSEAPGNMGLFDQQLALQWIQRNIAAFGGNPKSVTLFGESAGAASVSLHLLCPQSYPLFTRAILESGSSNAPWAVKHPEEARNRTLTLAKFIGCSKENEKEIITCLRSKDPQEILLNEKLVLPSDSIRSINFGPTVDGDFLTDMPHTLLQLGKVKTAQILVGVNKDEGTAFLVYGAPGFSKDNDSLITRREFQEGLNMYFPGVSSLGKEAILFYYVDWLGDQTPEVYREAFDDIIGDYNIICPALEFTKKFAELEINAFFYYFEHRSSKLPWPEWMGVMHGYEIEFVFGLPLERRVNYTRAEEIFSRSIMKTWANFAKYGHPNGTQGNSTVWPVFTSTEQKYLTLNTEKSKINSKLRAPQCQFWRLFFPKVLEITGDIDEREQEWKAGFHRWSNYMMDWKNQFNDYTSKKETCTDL
In another assay the target is Butyrylcholinesterase (Rattus norvegicus, UniProt Q9JKC1). Put plainly: Inhibition of rat plasma BChE by Ellman's method. Type of assay: cell-free. For orientation: Ellman's reagent forms a yellow product with free thiols.
Butyrylcholinesterase, sequence (Q9JKC1 whole entry): as the sequence (Q9JKC1 1-597, one chain of several) above
Another assay addresses T2, Acetylcholinesterase (Rattus norvegicus, UniProt P37136).
T2 sequence (P37136 whole entry): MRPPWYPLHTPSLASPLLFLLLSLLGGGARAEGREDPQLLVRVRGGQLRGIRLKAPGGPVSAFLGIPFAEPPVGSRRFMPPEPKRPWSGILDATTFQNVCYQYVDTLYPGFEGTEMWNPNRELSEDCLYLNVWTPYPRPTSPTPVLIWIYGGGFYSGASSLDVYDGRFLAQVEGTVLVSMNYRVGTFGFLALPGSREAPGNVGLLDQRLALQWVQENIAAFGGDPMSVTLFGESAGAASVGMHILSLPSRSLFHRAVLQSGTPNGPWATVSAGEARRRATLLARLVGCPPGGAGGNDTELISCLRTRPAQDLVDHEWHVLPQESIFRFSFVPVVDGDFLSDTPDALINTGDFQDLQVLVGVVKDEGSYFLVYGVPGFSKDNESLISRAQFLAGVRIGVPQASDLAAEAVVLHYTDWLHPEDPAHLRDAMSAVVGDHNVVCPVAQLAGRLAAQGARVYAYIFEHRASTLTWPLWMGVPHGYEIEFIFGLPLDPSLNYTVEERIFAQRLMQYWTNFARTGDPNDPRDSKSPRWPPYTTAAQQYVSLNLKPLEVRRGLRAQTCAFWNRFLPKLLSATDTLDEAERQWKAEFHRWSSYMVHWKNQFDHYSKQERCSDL
Put plainly: Inhibition of rat brain AChE by Ellman's method.

Assay [2] has as its target T1, Acetylcholinesterase and butyrylcholinesterase (AChE and BChE) (Rattus norvegicus). The assay can be described thus: Selectivity ratio of IC50 for rat brain AChE to IC50 rat plasma BChE. The assay is classed as cell-free.

Regarding `CN1CC[C@@]2(C)c3cc(OC(=O)Nc4cccc5ccccc45)ccc3N(C)[C@@H]12`, the Ratio IC50 in assay [1] worked out at 3. Further, the values for the IC50 on Butyrylcholinesterase and at Acetylcholinesterase were 14.1 nM and 4.2 nM, respectively.
For the compound `CN1CC[C@@]2(C)c3cc(OC(=O)Nc4ccccc4Br)ccc3N(C)[C@@H]12`, the IC50 at Butyrylcholinesterase came to 39.6 nM; on Acetylcholinesterase, 66.5 nM.
In the case of `CN1CC[C@@]2(C)c3cc(OC(=O)NC4CCCCC4)ccc3N(C)[C@@H]12`, the Ratio IC50 in assay [1] is 174. Further, the IC50 against Butyrylcholinesterase came to 1400 nM; at Acetylcholinesterase it was 8.5 nM.
As for `COc1ccc(NC(=O)Oc2ccc3c(c2)[C@]2(C)CCN(C)[C@@H]2N3C)cc1`, the IC50 at Butyrylcholinesterase is 5.8 nM; against Acetylcholinesterase, 29.9 nM. Further, in assay [2], the Ratio IC50 is 5.
The matching figures for `CN1CC[C@@]2(C)c3cc(OC(=O)Nc4ccccc4Cl)ccc3N(C)[C@@H]12`: 88.7 nM, 264 nM and 3.
As for `CN1CC[C@@]2(C)c3cc(OC(=O)Nc4cccc(Cl)c4)ccc3N(C)[C@@H]12`, the Ratio IC50 in assay [1] is 3. Also, the IC50 amounted to 105 nM against Butyrylcholinesterase and 38.7 nM against Acetylcholinesterase.
The matching figures for `CN1CC[C@@]2(C)c3cc(OC(=O)Nc4cccc(C#N)c4)ccc3N(C)[C@@H]12`: 4, 1020 nM and 442 nM.
Take `CN1CC[C@@]2(C)c3cc(OC(=O)Nc4ccc(Br)cc4)ccc3N(C)[C@@H]12`: the IC50 against Butyrylcholinesterase was 14.9 nM; at Acetylcholinesterase it was 168 nM. Moreover, in assay [2], the Ratio IC50 was determined as 7.
The compound `CNC(=O)Oc1ccc2c(c1)[C@]1(C)CCN(C)[C@@H]1N2C` [PHYSOSTIGMINE] returned an IC50 at Butyrylcholinesterase of 7.6 nM.
As to `CN1CC[C@@]2(C)c3cc(OC(=O)Nc4ccc(Cl)cc4)ccc3N(C)[C@@H]12`, the IC50 stood at 61.3 nM against Butyrylcholinesterase and 914 nM against Acetylcholinesterase. In addition, in assay [2], the Ratio IC50 was determined as 15.
For the compound `CC(C)c1cccc(C(C)C)c1NC(=O)Oc1ccc2c(c1)[C@]1(C)CCN(C)[C@@H]1N2C`, the IC50 was determined as 830 nM against Butyrylcholinesterase and 735 nM against Acetylcholinesterase.
Turning to `CN1CC[C@@]2(C)c3cc(OC(=O)Nc4ccccc4)ccc3N(C)[C@@H]12` [PHENSERINE], in assay [1], the Ratio IC50 stood at 10. Also, the IC50 on Butyrylcholinesterase is 104 nM; on Acetylcholinesterase it was 11.9 nM.
For `CN1CC[C@@]2(C)c3cc(OC(=O)Nc4cc(Cl)cc(Cl)c4)ccc3N(C)[C@@H]12`, in that order: 8, 935 nM and 113 nM.
For `Cc1c(Cl)cccc1NC(=O)Oc1ccc2c(c1)[C@]1(C)CCN(C)[C@@H]1N2C`, in that order: 18, 113 nM and 6.4 nM.
The matching figures for `CN1CC[C@@]2(C)c3cc(OC(=O)Nc4cccc(Cl)c4Cl)ccc3N(C)[C@@H]12`: 8, 517 nM and 66.2 nM.
Turning to `Cc1ccc(NC(=O)Oc2ccc3c(c2)[C@]2(C)CCN(C)[C@@H]2N3C)cc1Cl`, the IC50 at Butyrylcholinesterase turned out to be 8.5 nM; against Acetylcholinesterase, 7.3 nM.
